The text below walks through data of US11787790B2, “Benzimidazole derivative having fluorine-containing substituent, preparation and application thereof” (YUNBAIYAO ZHENGWU SCIENCE AND TECHNOLOGY (SHANGHAI) CO., …, priority 2020, dated 2023).

Data set [1] concerns A549 cells (human non-small cell lung cancer cells). Kind of data set: CCK-8 anti-proliferation assay, A549 cells. The format is cell-based. The following applies: CCK-8, 72 hours incubation. The method, then: (§1) The anti-proliferation activities of compounds 1-11 to U87MG cells (human malignant glioma cells, ATCC 5018014), NCI-H1975 cells (human non-small cell lung adenocarcinoma cells, ATCC 57849016), A549 cells (human non-small cell lung cancer cells, ATCC 7503618), HCT 116 (human colon cancer cells, ATCC 4587576), and MCF-7 (human breast cancer cells, ATCC 5105360) were verified by using a CCK-8 method.
(§2) A sample stock solution with a concentration of 20 μM was prepared first. The stock solution was sequentially diluted to obtain 10 samples with concentrations of 20000 nM, 4000 nM, 800 nM, 160 nM, 32 nM, 6.4 nM, 1.28 nM, 0.256 nM, 0.0512 nM, and 0.01024 nM, respectively.
(§3) 50 μL of cell suspension with density of 2*10^4 cells/mL was prepared in 96-well plates followed by pre-culturing in the incubator for 24 hours (37° C., 5% CO2). 50 μL of afore-mentioned sample solution was added into each well. After incubated for 72 hours, 10 μl of CCK-8 solution was added into each well, and then further incubated for additional 2 hours.

In data set [2] the test system is NCI-H1975 cells (human non-small cell lung adenocarcinoma cells). The data set is described as follows: CCK-8 anti-proliferation assay, NCI-H1975 cells. The format is cell-based. The following applies: CCK-8, 72 hours incubation. The method, then: as §1, §2, §3
For orientation: Tetrazolium assays rely on reduction of a dye to a coloured formazan, in cell work by metabolically active cells.

Data set [3] concerns HCT 116 (human colon cancer cells). The data set is described as follows: CCK-8 anti-proliferation assay, HCT 116 cells. The following applies: CCK-8, 72 hours incubation, read-out: HCT116 cell IC50. The format is cell-based. How it is done: as §1, §2, §3
Data set [4] is described as follows: Determination of half-lethal dose (LD50) in mice. The following applies: both sexes, mouse, in vivo, Kunming mice, gastric administration, Bliss calculation method. How it is done: The SPF-grade Kunming mice, belonging to the outbred stock and weighing 20±2 g, were selected (a ratio of the males to the females was 1:1). The dosage range of each compound was explored through pre-experiments. After that, formal tests were carried out. In the range of 0-100% of the lethal dose obtained by the pre-experiments, five doses were selected to increase or decrease according to the isobaric series to allow the mortality of one half of the groups to be 50% or above, and the other half to be 50% or less. After animal grouping and dosage calculation were completed, gastric administration was performed according to the group. The time from the administration to the beginning of the occurrence of toxic reaction, the poisoning phenomenon and the occurrence sequence thereof, the time of the first occurrence of death, the time of death concentration, and the time of the last occurrence of death were recorded. The number of deaths in each group was recorded day by day.

Data set [5] concerns MCF-7 (human breast cancer cells). The data set is described as follows: CCK-8 anti-proliferation assay, MCF-7 cells. It is filed as cell-based. The settings on record: MCF7, CCK-8, 72 hours incubation, read-out: MCF-7 cell IC50. How it is done: as §1, §2, §3
Data set [6] concerns U87MG cells (human malignant glioma cells). The data set is described as follows: CCK-8 anti-proliferation assay, U87MG cells. The format is cell-based. The settings on record: U-87 MG, CCK-8, 72 hours incubation, read-out: U87MG cell IC50. How it is done:
as §1, §2, §3

For data set [7] the following is noted: in vivo; cited from earlier work.
For data set [8] the following is noted: oral administrated; cited from earlier work.

SMILES strings stand for the structures.

For `N#CCCNc1nonc1-c1nc2c(O)cccc2n1CC(F)(F)c1ccc(N)cc1` [Compound 2], the IC50 (as a rule, the concentration that inhibits the measured activity by half) in data set [1] turned out to be 18.2 nM; in data set [2], 31.2 nM; in data set [3], 28.3 nM; in data set [5], 17.4 nM; in data set [6], 22.4 nM. The LD50 (commonly the dose expected to kill half of the subjects tested) in data set [4] (oral) was 245 mg/kg.

With `N#CCCNc1nonc1-c1nc2cc(Cl)ccc2n1CC(F)(F)c1ccc(N)cc1` [Compound 5], the IC50 amounted to 13.2 nM in data set [1]; 27.4 nM in data set [2]; 35.8 nM in data set [3]; 16.9 nM in data set [5]; 15.7 nM in data set [6]. Besides, the LD50 in data set [4] (oral) is 264 mg/kg.

In the case of `N#CCCNc1nonc1-c1nc2cc(O)ccc2n1CC(F)(F)c1ccc(N)cc1` [Compound 3], the IC50 in data set [1] amounted to 26.8 nM; in data set [2] it was 13.3 nM; in data set [3] it was 13.6 nM; in data set [5], 13.2 nM; in data set [6], 13.2 nM. Further, the LD50 in data set [4] (oral) is 239 mg/kg.

As for `N#CCCNc1nonc1-c1nc2ccccc2n1CCC(F)(F)c1ccc(N)cc1` [Compound 10], the IC50 in data set [1] turned out to be 41.5 nM; in data set [2] it was 34.3 nM; in data set [3], 38.7 nM; in data set [5], 38.5 nM; in data set [6], 41.2 nM. For the same compound, the LD50 in data set [4] (oral) is 323 mg/kg.

As to `N#CCCNc1nonc1-c1nc2ccccc2n1CC(F)(F)c1ccc(N)cc1` [Compound 1, 3-[(4-{1-[2-(4-aminophenyl)-2,2-difluoroethyl]-1H-benzimidazol-2-yl}-1,2,5-oxadiazol-3-yl)amino] propionitrile], the IC50 was found to be 29 nM in data set [1]; 19.4 nM in data set [2]; 19.7 nM in data set [3]; 33 nM in data set [5]; 31.3 nM in data set [6]. Besides, in data set [4] (oral), the median lethal dose (LD50) was 267 mg/kg.

As for `N#CCCNc1nonc1-c1nc2ccccc2n1C(F)(F)c1ccc(N)cc1` [Compound 9], the IC50 in data set [1] amounted to 28.7 nM; in data set [2], 19.8 nM; in data set [3] it was 28.5 nM; in data set [5], 32.8 nM; in data set [6] it was 23.9 nM. Besides, the LD50 in data set [4] (oral) was 305 mg/kg.

In the case of `N#CCCNc1nonc1-c1nc2ccccc2n1CC(F)c1ccc(N)cc1` (stereo not drawn) [Compound 8, 3-[(4-{1-[2-(4-aminophenyl)-2-fluoroethyl]-1H-benzimidazol-2-yl}-1,2,5-oxadiazol-3-yl)amino] propionitrile], the IC50 is 33.7 nM in data set [1]; 17.5 nM in data set [2]; 24.4 nM in data set [3]; 22.8 nM in data set [5]; 15.6 nM in data set [6]. For the same compound, the LD50 in data set [4] (oral) is 291 mg/kg.

As for `N#CCCNc1nonc1-c1nc2c(Cl)cccc2n1CC(F)(F)c1ccc(N)cc1` [Compound 4], the IC50 was 12.9 nM in data set [1]; 14.9 nM in data set [2]; 12.1 nM in data set [3]; 21.7 nM in data set [5]; 27.3 nM in data set [6]. Further, the LD50 in data set [4] (oral) was 262 mg/kg.

`N#CCCNc1nonc1-c1nc2cc(C(F)(F)F)ccc2n1CC(F)(F)c1ccc(N)cc1` [Compound 6]: the IC50 in data set [1] was 14.7 nM; in data set [2] it was 11.9 nM; in data set [3] it was 17.2 nM; in data set [5], 13.2 nM; in data set [6], 34.2 nM. The LD50 in data set [4] (oral) is 254 mg/kg.

As to `Cn1nnc2c(C(N)=O)ncn2c1=O` [Temozolomide], the “crossing the blood-brain barrier” value in data set [7] was “can cross the blood-brain barrier”. Also, in data set [8], the bioavailability (in general, dose-corrected exposure relative to a reference, in per cent) is around 100%.

In the case of `N#CCCNc1nonc1-c1nc2ccccc2n1CC(=O)c1ccc(N)cc1` [Compound 11, 3-{[4-(1-(4-aminoacetophenone)-benzimidazol-2-yl)-1,2,5-oxadiazol-3-yl]amino}propionitrile, reference compound], the IC50 is 42.4 nM in data set [1]; 42.8 nM in data set [2]; 52.6 nM in data set [3]; 39.2 nM in data set [5]; 51.2 nM in data set [6]. Further, in data set [4], the LD50 is 153 mg/kg. Moreover, the “crossing the blood-brain barrier” value in data set [7] was “capable of crossing the blood-brain barrier”.

For `Cc1ccc2c(c1)nc(-c1nonc1NCCC#N)n2CC(F)(F)c1ccc(N)cc1` [Compound 7], the IC50 in data set [1] came out at 13.9 nM; in data set [2], 32.4 nM; in data set [3] it was 13.7 nM; in data set [5], 25.7 nM; in data set [6], 12.5 nM. Further, the 50% lethal dose (LD50) in data set [4] (oral) is 239 mg/kg.
